Laboratory results: patent US6635242B2, “Broad spectrum microbicidal and spermicidal compositions, devices, and methods” (The Pennsylvania State University, priority 1998, dated 2003)

What was measured:
HPV 11 = experiment: Human papilloma induction: HPV 11 in human foreskin xenografts in athymic mice; assay type: in vivo, human papillomavirus
Experimental: Stocks of experimentally generated infectious HPV 11 were prepared and represented 10% w/v cell free extracts of virus in PBS. Undiluted aliquots of virus stocks (39 μl ) were mixed with a 40×solution of SDS 1 μl ), incubated at 37° C. for 10 min and immediately used to infect split thickness grafts of newborn human foreskin epithelium. Virus was not subsequently diluted. Control grafts were infected with untreated virus stock. Virus adsorption was for 1 hr at 37° C. […] Grafts were then transplanted beneath the renal capsule of athymic mice. Animals were maintained in isolator bubbles with antibiotic supplemented drinking water in the animal colony of the Hershey Medical Center. Three months following infection, animals were sacrificed, their kidneys were removed, and the xenografts were grossly examined. The remaining organs were examined for any apparent abnormalities and none were found. Portions of each graft were immediately fixed in 10% neutral-buffered formalin and processed by standard histologic techniques for staining with hematoxylin and eosin.
Standard stocks of HPV 11 were used as undiluted virus. These virus stocks normally induce Condylomata in 90-100% of infected xenografts when diluted 1000 fold. […] Infection was then carried out for 1 hr and the grafts subsequently transplanted in vivo. Eight animals (16 kidneys) received grafts infected with SDS treated virus and 9 animals (17 kidneys) received normal virus. […] In the normal infections, 17 of 17 grafts survived and of these, 14 were transformed morphologically upon histologic examination and had typical papillomatous appearance.

HSV-2 (strain 333) = experiment: HSV-2 inactivation assay (plaques on CV-1 monolayers); assay type: cell-based, herpes simplex virus; conditions: 37° C. 10 min, virus then diluted 100 fold
Experimental: HSV-2 (strain 333) virus stocks were propagated by low multiplicity infection of African Green monkey kidney (CV-1) cells and subsequent preparation of cell-free supernatants from frozen and thawed preparations of lytically infected cultures. Virus titers were determined by assay in CV-1 cell monolayers. Virus stocks were maintained in CV-1 cell culture medium which was Dulbecco's medium supplemented with antibiotics and 10% fetal calf serum.
For inactivation of HSV-2, 39 μl of virus was mixed with 1 μl of a 40×concentrated solution of detergent and then incubated at 37° C. for 10 min. After inactivation, the 40 μl of virus sample was diluted to 4 ml (1:100) using cell culture medium, and 1 ml of the diluted virus was adsorbed onto CV-1 monolayers for 1 hr at 37° C. Following adsorption, monolayers were refed and incubated at 37° C., 5% CO2. Between 20 and 24 hr post infection, monolayers were fixed, stained with crystal violet and plaques counted using a dissecting microscope. The numbers in Table 1 each represent an average of 2 plates.

HSV-2 = experiment: Protection of mice from vaginal infection with live HSV-2; assay type: in vivo, herpes simplex virus; conditions: Swiss-Webster mice
Experimental: The following data represent an in vivo experiment to test both the toxicity and the efficacy of SDS in the protection of mice from vaginal infection with live herpes simplex virus (HSV-2).
The experiment used outbred, female, Swiss-Webster mice. Mice were anesthetized and then SDS or control solutions (25μl ) was instilled into the vagina using a yellow pipette tip. The SDS was not formulated into a vaginal cream or foam but merely dissolved into phosphate buffered saline. These solutions have low viscosity. Fluids were instilled into groups of 10 mice at one time. Following administration of SDS or control solutions to the group of 10, then an additional 25 μof virus or control fluid was instilled. Mice were allowed to recover from the anesthesia and then the mice were checked daily for symptoms, beginning on day three and until 12 days after inoculation. Vaginal swabs were also performed on the mice on a daily basis, beginning on day three, in order to determine shedding of virus. FIGS. 3A-3G show the total symptoms per group on days 3 through 12 for each of the following symptoms: swelling, vaginal exudate, redness, death, leg paralysis, perianal hair loss and any symptom.

Bovine sperm = Bovine sperm motility following detergent addition; assay type: cell-based; parameters: key to Bovine Sperm Motility Following Detergent Addition: +++: Vigorous swimming; ++/−: Many swimmers/some dead; +/−: Occasional swimmer/most dead; −: All dead
From the text: The following data represent an in vitro experiment to test the efficacy of SDS and other detergents as spermicidal agents. Frozen samples of bull semen were obtained, thawed and placed in a test tube. Aliquots were taken out and put in a separate test tube where they were mixed with detergent (SDS, C31G, N-9 or a mixture of SDS and N-9) to a final percent as listed in Tables 8 and 9 below. After mixing, the samples were immediately placed on a microscope slide and visually examined for sperm movement. The experiment was conducted one sample at a time so that the visual examination was conducted immediately after addition of detergent to the sample. As a result, indications in the table of complete inactivation indicate virtually instantaneous inactivation of the sperm. […] Occasional swimmers means very few, on the order of approximately 1% of the population of sperm present in the sample, indicating approximately 99% of the sperm were inactivated by the detergent.

[1] = tested on: split thickness grafts of neonatal foreskin; experiment: SDS exposure and viability of human foreskin xenografts; assay type: in vivo; conditions: 0.05% SDS, no virus; immediately and days 1, 5, 11 and 20
Experimental: A second set of control grafts was exposed only to identical concentrations of SDS and no virus. These grafts were harvested on days 1, 5, 11 and 20 following transplantation in order to follow the viability and growth of the grafts after SDS exposure.
Because of concern about the potential for SDS to kill human epithelium, control experiments were performed in which split thickness grafts of neonatal foreskin were exposed to 0.05% SDS alone and then subsequently grafted. All conditions in this experiment were identical to those used in the HPV 11 infections with treated virus, except that virus was not present. SDS-exposed grafts (2 animals at each time) were harvested, fixed and sectioned immediately after exposure, and on days 1, 5, 11 and 20 after treatment. […] The original split thickness grafts were approximately 1 mm×1 mm×1 mm in size; in addition they were punctured many times with the tip of a needle in order to allow entrance of the HPV 11 and/or the SDS into the epithelial layers. Although it is possible that some epithelial cells may have been damaged or killed during SDS exposure, damage was minimal and epithelial growth in the grafts was normal.

[2] = 0.025 % SDS during treatment (as printed in Table 5), grafts harvested after three months
[3] = undiluted HPV 11 treated with 0.05% SDS, 37° C. 10 min

SMILES: CCCCCCCCCCCCOS(=O)(=O)[O-].[Na+] [SDS, Sodium dodecyl sulfate]
- surviving grafts/ transplanted grafts (HPV 11; [2]): 13/16
- total papillomas (HPV 11; [2]): 0
- prevention of HPV 11 infection of xenografts (HPV 11; [3]): effectively prevented virus infection
- xenografts showing viable tissue at harvest (normal, viable differentiating human epithelium) (HPV 11; [3]): 13 out of 16
- Plaques/Plate (5 experiments) (HSV-2 (strain 333); 1 × 10^−1 % SDS during treatment): 0/0/0/0/0
- Plaques/Plate (5 experiments) (HSV-2 (strain 333); 1.25 × 10^−2 % SDS during treatment): 0/0/0/0/0
- Plaques/Plate (5 experiments) (HSV-2 (strain 333); 2.5 × 10^−2 % SDS during treatment): 0/0/0/0/0
- Plaques/Plate (5 experiments) (HSV-2 (strain 333); 2.5 × 10^−3 % SDS during treatment): 28/54/322/145/104
- Plaques/Plate (5 experiments) (HSV-2 (strain 333); 5 × 10^−2 % SDS during treatment): 0/0/0/0/0
- protection from HSV-2 inoculation of the vagina, dose response (HSV-2; 4% SDS): most protection
- protection from HSV-2 inoculation of the vagina (symptoms days 3-12) (HSV-2; all concentrations of SDS (0.5%, 1%, 2%, 4%) in PBS, 25 μl intravaginal): significant protection
- Bovine Sperm Motility Following Detergent Addition (Bovine sperm; Table 8, 0.0125% detergent): +/−
- timing of sperm inactivation (Bovine sperm; Table 8, 0.0125% detergent, delayed = approximately 10 minutes): (delayed)
- Bovine Sperm Motility Following Detergent Addition (Bovine sperm; Table 8, 0.025% detergent): −
- Bovine Sperm Motility Following Detergent Addition (Bovine sperm; Table 8, 0.5% detergent): −
- Bovine Sperm Motility Following Detergent Addition (Bovine sperm; Table 8, 1% detergent): −
- Bovine Sperm Motility Following Detergent Addition (Bovine sperm; Table 8, 2% detergent): −
- Bovine Sperm Motility Following Detergent Addition (Bovine sperm; Table 9, 0.125% detergent): ++/−
- Bovine Sperm Motility Following Detergent Addition (Bovine sperm; Table 9, 0.25% detergent): ++/−
- Bovine Sperm Motility Following Detergent Addition (Bovine sperm; Table 9, 0.5% detergent): ++/−
- Bovine Sperm Motility Following Detergent Addition (Bovine sperm; Table 9, 1% detergent): ++/−
- Bovine Sperm Motility Following Detergent Addition (Bovine sperm; Table 9, 2% detergent): +/−
- viability of grafts exposed to SDS alone (histology) [1]: fully viable epithelium on all days and no apparent necrosis
